According to patent US10030020B2, “Spirocycle compounds and methods of making and using same” (Abide Therapeutics, Inc., priority 2016, dated 2018):

What was measured:
ABHD6 [1] = target: T1, ABHD6 (Mus musculus (Mouse), UniProt Q8R2Y0); experiment: In vitro competitive activity-based protein profiling (mouse brain membrane fraction or cell lysates), ABHD6 band; type: biochemical; conditions: mouse proteome; for inhibition at 1 µM: read-out: ABHD6 % Inh 1 μM (mouse); for IC50: competitive ABPP
Outline: (§1)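 Competitive ABPP: proteome 1.0 mg/mL protein + inhibitor, 30 min, 37° C; FP-Rh probe (stock 50 μM in DMSO) added, 30 min, 37° C; SDS quench, SDS-PAGE, fluorescent band intensity read.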

MAGL [2] = target: T2, MAGL (Mus musculus (Mouse), UniProt O35678); experiment: Mouse brain proteomes from inhibitor treated mice (oral gavage, sacrificed 4 h after administration, ABPP analysis); type: in vivo, mouse (C57Bl/6J); conditions: 5 mg/kg oral gavage
Outline: (§2)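 Oral dosing of C57Bl/6J wild-type mice at 5 mg/kg, brain collection 4 h afterwards, then ABPP of brain proteomes to give % target inhibition.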

MAGL [3] = target: T2, MAGL; experiment: In vitro competitive activity-based protein profiling (mouse brain membrane fraction or cell lysates), MAGL band; type: biochemical; conditions: mouse proteome; for inhibition at 1 µM: read-out: MAGL % Inh 1 μM (mouse); for IC50: competitive ABPP
Method: In Vitro Competitive Activity-Based Protein Profiling.
Proteomes (mouse brain membrane fraction or cell lysates) (50 μL, 1.0 mg/mL total protein concentration) were preincubated with varying concentrations of inhibitors at 37° C. After 30 min, FP—Rh (1.0 μL, 50 μM in DMSO) was added and the mixture was incubated for another 30 min at 37° C. Reactions were quenched with SDS loading buffer (50 μL-4×) and run on SDS-PAGE.

ABHD6 [4] = target: T1, ABHD6; experiment: Mouse brain proteomes from inhibitor treated mice (oral gavage, sacrificed 4 h after administration, ABPP analysis), ABHD6; type: in vivo, mouse (C57Bl/6J); conditions: 5 mg/kg oral gavage
Outline: as §2

FAAH [5] = target: T3, FAAH (Mus musculus (Mouse), UniProt O08914); experiment: In vitro competitive activity-based protein profiling (mouse brain membrane fraction or cell lysates), FAAH band; type: biochemical; conditions: mouse proteome; for inhibition at 1 µM: read-out: FAAH % Inh 1 μM (mouse); for IC50: competitive ABPP
Outline: as §1

FAAH [6] = target: T3, FAAH; experiment: Mouse brain proteomes from inhibitor treated mice (oral gavage, sacrificed 4 h after administration, ABPP analysis), FAAH; type: in vivo, mouse (C57Bl/6J); conditions: 5 mg/kg oral gavage
Outline: as §2

T1 sequence (Q8R2Y0 whole entry): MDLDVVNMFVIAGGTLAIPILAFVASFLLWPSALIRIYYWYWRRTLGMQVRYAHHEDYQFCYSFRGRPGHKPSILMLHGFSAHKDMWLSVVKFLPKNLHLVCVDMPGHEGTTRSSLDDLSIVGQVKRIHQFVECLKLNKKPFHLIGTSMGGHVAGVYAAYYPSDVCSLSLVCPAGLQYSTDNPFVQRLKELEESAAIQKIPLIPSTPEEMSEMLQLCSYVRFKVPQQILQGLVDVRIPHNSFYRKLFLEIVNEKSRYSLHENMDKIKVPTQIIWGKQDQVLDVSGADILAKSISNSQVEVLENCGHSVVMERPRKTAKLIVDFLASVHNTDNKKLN
T2 sequence (O35678 whole entry): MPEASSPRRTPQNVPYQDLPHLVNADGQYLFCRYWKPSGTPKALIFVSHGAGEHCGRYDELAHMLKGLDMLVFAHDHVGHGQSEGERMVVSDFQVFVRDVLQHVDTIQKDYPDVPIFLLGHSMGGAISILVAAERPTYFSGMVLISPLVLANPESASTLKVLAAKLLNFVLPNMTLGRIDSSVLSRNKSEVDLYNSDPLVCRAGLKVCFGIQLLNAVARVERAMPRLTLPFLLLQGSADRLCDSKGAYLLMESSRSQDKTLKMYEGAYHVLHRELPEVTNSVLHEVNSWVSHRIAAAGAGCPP
T3 sequence (O08914 whole entry): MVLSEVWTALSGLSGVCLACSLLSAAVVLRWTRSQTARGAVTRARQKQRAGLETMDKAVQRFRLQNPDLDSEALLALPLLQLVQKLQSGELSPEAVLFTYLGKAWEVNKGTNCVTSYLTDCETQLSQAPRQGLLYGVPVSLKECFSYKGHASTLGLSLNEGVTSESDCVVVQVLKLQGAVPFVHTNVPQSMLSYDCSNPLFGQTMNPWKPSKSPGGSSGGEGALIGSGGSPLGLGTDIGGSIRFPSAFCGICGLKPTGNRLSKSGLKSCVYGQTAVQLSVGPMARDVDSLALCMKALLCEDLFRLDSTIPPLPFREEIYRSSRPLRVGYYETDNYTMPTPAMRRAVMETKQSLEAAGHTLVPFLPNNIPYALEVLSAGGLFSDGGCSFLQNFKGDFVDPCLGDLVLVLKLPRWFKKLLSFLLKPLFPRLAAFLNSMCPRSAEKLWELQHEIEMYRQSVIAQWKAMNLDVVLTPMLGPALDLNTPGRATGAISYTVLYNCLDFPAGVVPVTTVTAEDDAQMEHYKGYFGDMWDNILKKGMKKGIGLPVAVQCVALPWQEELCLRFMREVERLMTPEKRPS

Row | SMILES | inhibition at 1 µM (ABHD6 [1]) [%] | IC50 (ABHD6 [1]) [nM] | MAGL % Inh 5 mg/kg (mouse) (MAGL [2]) | inhibition at 1 µM (MAGL [3]) [%] | IC50 (MAGL [3]) [nM] | ABHD6 % Inh 5 mg/kg (mouse) (ABHD6 [4]) | inhibition at 1 µM (FAAH [5]) [%] | IC50 (FAAH [5]) [nM] | FAAH % Inh 5 mg/kg (mouse) (FAAH [6])
1 | O=C(OC(C(F)(F)F)C(F)(F)F)N1CCC2(CCCN2Cc2ccc(Cl)cc2N2CCC2)CC1 [Example 107, 1,1,1,3,3,3-Hexafluoropropan-2-yl 1-(2-(azetidin-1-yl)-4-chlorobenzyl)-1,8-diazaspiro[4.5]decane-8-carboxylate] | < 25 | > 1000 | ### (### is ≥75%) | > 75 | < 100 | # (# is <25%) | < 25 | > 1000 | ## (## is equal to or greater than 25% but less than 75%)
2 | O=C(OC(C(F)(F)F)C(F)(F)F)N1CCC2(CCCN2Cc2ccc(Cl)cc2N2CC3COCC3C2)CC1 (stereo not drawn) [Example 108, 1,1,1,3,3,3-Hexafluoropropan-2-yl 1-(4-chloro-2-(tetrahydro-1H-furo[3,4-c]pyrrol-5(3H)-yl)benzyl)-1,8-diazaspiro[4.5]decane-8-carboxylate] | < 25 | > 1000 | ### (### is ≥75%) | > 75 | < 100 | # (# is <25%) | < 25 | > 1000 | # (# is <25%)
3 | Cc1cc(CN2CCCC23CCN(C(=O)OC(C(F)(F)F)C(F)(F)F)CC3)ccc1Cl [Example 124, 1,1,1,3,3,3-Hexafluoropropan-2-yl 1-(4-chloro-3-methylbenzyl)-1,8-diazaspiro[4.5]decane-8-carboxylate] | < 25 | > 1000 | ### (### is ≥75%) | > 75 | < 100 | # (# is <25%) | < 25 | > 1000 | # (# is <25%)
4 | Cc1ccc(CN2CCCC23CCN(C(=O)OC(C(F)(F)F)C(F)(F)F)CC3)cc1Cl [Example 125, 1,1,1,3,3,3-Hexafluoropropan-2-yl 1-(3-chloro-4-methylbenzyl)-1,8-diazaspiro[4.5]decane-8-carboxylate] | < 25 | > 1000 | ### (### is ≥75%) | > 75 | < 100 | # (# is <25%) | < 25 | > 1000 | # (# is <25%)
5 | O=C(OC(C(F)(F)F)C(F)(F)F)N1CCC2(CCCN2Cc2ccc(N3CCCC3)c(Cl)c2)CC1 [Example 128, 1,1,1,3,3,3-Hexafluoropropan-2-yl 1-(3-chloro-4-(pyrrolidin-1-yl)benzyl)-1,8-diazaspiro[4.5]decane-8-carboxylate] | < 25 | > 1000 | ### (### is ≥75%) | > 75 | < 100 | # (# is <25%) | < 25 | > 1000 | # (# is <25%)
6 | O=C(OC(C(F)(F)F)C(F)(F)F)N1CCC2(CCCN2Cc2ccc(N3CCOCC3)c(C(F)(F)F)c2)CC1 [Example 129, 1,1,1,3,3,3-Hexafluoropropan-2-yl 1-(4-morpholino-3-(trifluoromethyl)benzyl)-1,8-diazaspiro[4.5]decane-8-carboxylate] | 25 to 75 | > 1000 | ### (### is ≥75%) | > 75 | < 100 | # (# is <25%) | < 25 | > 1000 | # (# is <25%)
7 | O=C(OC(C(F)(F)F)C(F)(F)F)N1CCC2(CCCN2Cc2ccc(N3CCCC3)c(C(F)(F)F)c2)CC1 [Example 130, 1,1,1,3,3,3-Hexafluoropropan-2-yl 1-(4-(pyrrolidin-1-yl)-3-(trifluoromethyl)benzyl)-1,8-diazaspiro[4.5]decane-8-carboxylate] | 25 to 75 | > 1000 | ### (### is ≥75%) | > 75 | < 100 | # (# is <25%) | < 25 | > 1000 | # (# is <25%)
8 | O=C(OC(C(F)(F)F)C(F)(F)F)N1CCC2(CCCN2Cc2ccc(Cl)c(N3CCCC3)c2)CC1 [Example 132, 1,1,1,3,3,3-Hexafluoropropan-2-yl 1-(4-chloro-3-(pyrrolidin-1-yl)benzyl)-1,8-diazaspiro[4.5]decane-8-carboxylate] | < 25 | > 1000 | ### (### is ≥75%) | > 75 | < 100 | # (# is <25%) | < 25 | > 1000 | # (# is <25%)
9 | CS(=O)(=O)N1CCc2cccc(CN3CCCC34CCN(C(=O)OC(C(F)(F)F)C(F)(F)F)CC4)c2C1 [Example 146, 1,1,1,3,3,3-Hexafluoropropan-2-yl 1-((2-methanesulfonyl-1,2,3,4-tetrahydroisoquinolin-8-yl)methyl)-1,8-diazaspiro[4.5]decane-8-carboxylate] | 25 to 75 | > 1000 | ### (### is ≥75%) | > 75 | < 100 | ## (## is equal to or greater than 25% but less than 75%) | < 25 | > 1000 | # (# is <25%)
10 | CCc1cc(CN2CCCC23CCN(C(=O)OC(C(F)(F)F)C(F)(F)F)CC3)ccc1F [Example 150, 1,1,1,3,3,3-Hexafluoropropan-2-yl 1-(3-ethyl-4-fluorobenzyl)-1,8-diazaspiro[4.5]decane-8-carboxylate] | < 25 | > 1000 | ### (### is ≥75%) | > 75 | < 100 | # (# is <25%) | < 25 | > 1000 | # (# is <25%)
11 | O=C(OC(C(F)(F)F)C(F)(F)F)N1CCC2(CCCN2Cc2ccc3c(c2)COC3)CC1 [Example 151, 1,1,1,3,3,3-Hexafluoropropan-2-yl 1-((1,3-dihydroisobenzofuran-5-yl)methyl)-1,8-diazaspiro[4.5]decane-8-carboxylate] | < 25 | > 1000 | ### (### is ≥75%) | > 75 | < 100 | ## (## is equal to or greater than 25% but less than 75%) | < 25 | > 1000 | ## (## is equal to or greater than 25% but less than 75%)
12 | CCc1cc(CN2CCC3(CCN(C(=O)OC(C(F)(F)F)C(F)(F)F)CC3)C2)ccc1F [Example 152, 1,1,1,3,3,3-Hexafluoropropan-2-yl 2-(3-ethyl-4-fluorobenzyl)-2,8-diazaspiro[4.5]decane-8-carboxylate] | ≥ 75 | 100 to 1000 | ### (### is ≥75%) | > 75 | < 100 | ### (### is ≥75%) | < 25 | > 1000 | # (# is <25%)
13 | O=C(OC(C(F)(F)F)C(F)(F)F)N1CCC2(CCN(Cc3ccc(C(F)(F)F)c(N4CCCC4)c3)C2)CC1 [Example 157, 1,1,1,3,3,3-Hexafluoropropan-2-yl 2-(3-(pyrrolidin-1-yl)-4-(trifluoromethyl)benzyl)-2,8-diazaspiro[4.5]decane-8-carboxylate] | ≥ 75 | 100 to 1000 | ### (### is ≥75%) | > 75 | < 100 | ## (## is equal to or greater than 25% but less than 75%) | < 25 | > 1000 | # (# is <25%)
14 | CN1CCC(Oc2cc(CN3CCCC34CCN(C(=O)OC(C(F)(F)F)C(F)(F)F)CC4)cc(C(F)(F)F)c2)CC1 [Example 166, 1,1,1,3,3,3-Hexafluoropropan-2-yl 1-(3-(1-methylpiperidin-4-yloxy)-5-(trifluoromethyl)benzyl)-1,8-diazaspiro[4.5]decane-8-carboxylate] | < 25 | > 1000 | # (# is <25%) | > 75 | < 100 | # (# is <25%) | < 25 | > 1000 | # (# is <25%)
